Data published in patent US20240383950A1, “RECOMBINANT GLYCAN BINDING PROTEINS AND ITS USE” (UNICHEM LABORATORIES LIMITED, priority 2021, published 2024).

Test: MTS-PMS cytotoxicity bioassay, MDA-MB 231
Conditions: human, MDA-MB 231 breast cancer cells
Description: 5000 cells/well were used for testing.
The drug Doxorubicin was used as system suitability (SST) reference.

COc1cccc2c1C(=O)c1c(O)c3c(c(O)c1C2=O)C[C@@](O)(C(=O)CO)C[C@@H]3O[C@H]1C[C@H](N)[C@H](O)[C@H](C)O1 [Doxorubicin]
cytotoxicity at 100 μm: 45%
